Laboratory results: US20140341939A1 (NATIONAL UNIVERSITY CORPORATION KOCHI UNIVERSITY, priority 2011, published 2014)
“Also recorded” adds a separate entry of the source. Like-named read-outs stand apart in the source and are kept apart here. Where a SMILES comes first, the peptide text is derived from it. Where no end group is shown, it is not given here. [ ]: non-standard residue; d: D form. The star is where a group is joined. Biotin = O=C1N[C@H]2[C@H](CS[C@H]2CCCCC(=O)*)N1; βAla = NCCC(=O)O

Key:
[1] = system: DO11.10 cells; assay: Growth of CD4 T cells: proliferation of DO11.10 cells by OVII modified peptides (3H-thymidine); format: cell-based, mouse; conditions: for sensitization activity compared to OVII+ (in words): effect of lysine, FIG. 20
[2] = system: EG7 tumor; assay: Antitumor activity by in vivo immunization with OVA-derived peptides (EL4 / EG7 tumor); conditions: CBF1 mouse, peptide-loaded LPS blast i.p. 3 times; EL4 / EG7 tumor (FIG. 8)
From the text: CBF1 mouse was immunized with LPS blast of splenocyte pulsed with either λ repressor peptide ([…]; SEQ ID NO: 39) or OVAII peptide as a Th epitope peptide, and K^b-binding OVA-I peptide, which is a CTL inducing peptide. LPS blast derived from one spleen was pulsed with peptide, and intraperitoneally injected to immunize two mice. The next day of the third immunization, 9×10^6 EL4 cells and 1.2×10^7 EG7 cells were intradermally transplanted in a pair on the back skin of the mice. The tumor size was measured every other day. Immunization was performed once again 2 weeks from the tumor transplantation.
To verify the anti-tumor effect of inducing tumor-specific Th cells in vivo, the inventor compared the immunization protocol that induces 1. CTL alone, 2. CTL and a third party antigen-specific Th cell, and 3. CTL and tumor-specific Th cell. As the antigen presenting cell, LPS blast of spleen cell was used, and the APC loaded with each peptide alone or the mixture of each peptide was injected intraperitoneally 3 times (once per week). On the day of third immunization, 9×10^6 EL4 and 1.2×10^7 EG7 tumor were innoculated on the opposite sides of the back, and the tumor diameter was measured from day 4.

[3] = TBS containing 10% fresh mouse serum; conditions: 37° C., up to 16 hr
[4] = system: serum peptidase; assay: Degradation of peptide in 10% fresh mouse serum (HPLC of remaining peptide); conditions: for digestion resistance to serum peptidases (in words): up to 16 hr (FIG. 21)
Experimental: (§1) Peptide was digested in TBS containing 10% fresh mouse serum or fresh human serum. After incubation at 37° C. for a given time, 1% trifluoro acid was added to remove various serum proteins by precipitation. After short centrifugation, the soluble fraction was analyzed by reversed-phase HPLC using a C18 analysis column. To normalize variation in the total amount of the peptide loaded for each HPLC, the peak of non-protein components contained in the serum, which is absorbed at the wavelength of 220 nm, was used as an internal control. The peak area of undigested peptides was quantitatively monitored by Chromatopac C-R8A (Shimadzu Corp., Kyoto, Japan), and the amount of the remaining peptide was calculated.
(§2) Therefore, the inventor examined the digestion resistance of peptide in vitro in a 10% fresh mouse serum. The amount of a remaining undigested peptide was quantified by HPLC.

[5] = system: DO11.10 cells; assay: Antigen presentation by F2-IA^d vascular endothelial cells (CD69 expression by DO11.10 cells); format: cell-based, mouse
Experimental: EL4 cells were first opsonized with RGD peptide. Next, 5 mg/ml OVA protein was loaded on the cytoplasm by osmotic pressure loading. After sufficient washing, 2×10^6 EL4 cells were added to a confluent culture medium of F2-IA^d cells on a 24-well plate (cultured for 2 days in advance in the presence of 500 U/ml rmIFN-γ). As a control, EL4 and EG7 mock-loaded with PBS were RGD-modified in the same manner and used. EL4 and other target cells were added to F2-IA^d, and the cell mixture was cultured for 24 hr. As for the control well wherein F2-IA^d cells were directly loaded with OVAII peptide, the cells were pulsed with peptide for 2 hr at the end of the culture. After removing the non-adherent cells and debris of dead cells, the surface of the adhered F2-IA^d cells was sufficiently washed. In an antigen presentation inhibitory experiment using chloroquine, 100 μM chloroquine was added 30 min before addition of EL4, EL4 loaded with OVA or 0.25 mg/ml OVA protein. Furthermore, F2-IA^d cells were cultured for 3 days in the continuous presence of chloroquine.
Whether the F2-IA^d cells presented the target antigen polypeptide on the cell surface was evaluated by monitoring the expression of CD69 by DO11.10 cells. The antigen-presenting F2-IA^d cells and DO11.10 cells were mixed and centrifuged to contact the cells with one another. After 6 hr and 24 hr, the cells were stained with biotin-labeled anti CD69 mAb (H1.2F3, BD Biosciences), and the expression of CD69 by DO11.10 cells was detected by flow cytometry (stained positive with FITC-labeled KJ1.26 (anti clonotypic TCR mAb)).

[6] = system: serum peptidase
Experimental: as §1, §2

[7] = system: peptidase activity in the serum; assay: Effect of peptidase inhibitor on OVII peptide digestion by mouse serum; format: biochemical; conditions: inhibitor-containing buffer (FIGS. 22-24)
From the text: Given the above-mentioned Examples, the inventor examined the effect of peptidase inhibitor on the peptide digestion to identify the peptidase in the serum.

SKISQAVHAAHAEINEAR [KOVII+]
sensitization activity compared to OVII+ (in words) [1]: no difference in the sensitization activity compared to OVII+

OVA-I: K^b-binding OVA-I peptide, which is a CTL inducing peptide (SIINFEKL; UniProt P01012 258-265, looked up, fragment)
tumor control, CTL-inducing peptide alone [2]: tumor control was only possible to a limited degree

PSK^bioISQAVHAAHAEINEARK^bioPβA
fragment found [3]: product which has lost the biotin molecule on the N terminal side, major

CC[C@H](C)[C@H](N)C(=O)N[C@@H](CO)C(=O)N[C@@H](CCC(N)=O)C(=O)N[C@@H](C)C(=O)N[C@H](C(=O)N[C@@H](Cc1c[nH]cn1)C(=O)N[C@@H](C)C(=O)N[C@@H](C)C(=O)N[C@@H](Cc1c[nH]cn1)C(=O)N[C@@H](C)C(=O)N[C@@H](CCC(=O)O)C(=O)N[C@H](C(=O)N[C@@H](CC(N)=O)C(=O)N[C@@H](CCC(=O)O)C(=O)N[C@@H](C)C(=O)N1CCC[C@H]1C(=O)NCCC(=O)O)[C@@H](C)CC)C(C)C [OVIIPβ] (HELM PEPTIDE1{I.S.Q.A.V.H.A.A.H.A.E.I.N.E.A.P.[bAla]}$$$$V2.0; N-terminus and C-terminus assumed)
digestion resistance to serum peptidases (in words) ([4]; 10% fresh mouse serum): the protection effect was further enhanced, and the amount of the peptide remaining 16 hr later increased

CC[C@H](C)[C@H](NC(=O)[C@H](CCC(=O)O)NC(=O)[C@H](C)NC(=O)[C@H](Cc1c[nH]cn1)NC(=O)[C@H](C)NC(=O)[C@H](C)NC(=O)[C@H](Cc1c[nH]cn1)NC(=O)[C@@H](NC(=O)[C@H](C)NC(=O)[C@H](CCC(N)=O)NC(=O)[C@H](CO)NC(=O)[C@@H](NC(=O)[C@H](CO)NC(=O)[C@@H]1CCCN1)[C@@H](C)CC)C(C)C)C(=O)N[C@@H](CC(N)=O)C(=O)N[C@@H](CCC(=O)O)C(=O)N[C@@H](C)C(=O)N1CCC[C@H]1C(=O)NCCC(=O)O [POVIIPβ]
digestion resistance to serum peptidases (in words) ([4]; 10% fresh mouse serum): further additional protective effect

CC[C@H](C)[C@H](NC(=O)[C@H](CCC(=O)O)NC(=O)[C@H](C)NC(=O)[C@H](Cc1c[nH]cn1)NC(=O)[C@H](C)NC(=O)[C@H](C)NC(=O)[C@H](Cc1c[nH]cn1)NC(=O)[C@@H](NC(=O)[C@H](C)NC(=O)[C@H](CCC(N)=O)NC(=O)[C@H](CO)NC(=O)[C@@H](NC(=O)[C@H](CCCCNC(=O)CCCC[C@@H]1SC[C@@H]2NC(=O)N[C@@H]21)NC(=O)[C@H](CO)NC(=O)[C@@H]1CCCN1)[C@@H](C)CC)C(C)C)C(=O)N[C@@H](CC(N)=O)C(=O)N[C@@H](CCC(=O)O)C(=O)N[C@@H](C)C(=O)N[C@@H](CCCCNC(=O)CCCC[C@@H]1SC[C@@H]2NC(=O)N[C@@H]21)C(=O)N1CCC[C@H]1C(=O)NCCC(=O)O [PbOVIIbPβ] (H-PSK(Biotin)ISQAVHAAHAEINEAK(Biotin)P[βAla]-OH; N-terminus and C-terminus assumed)
level of epitope remaining in the serum compared with POVIIPβ ([4]; mouse, serum): almost the same for both peptides

SKISQAVHAAHAEINEARK [KOVII+K]
sensitization activity compared to OVII+ (in words) [1]: no difference in the sensitization activity compared to OVII+

SK^bioISQAVHAAHAEINEARK^bio (SK(Biotin)ISQAVHAAHAEINEARK(Biotin)) [bOVII+b]
activity to induce proliferation of DO11.10 Th cell relative to KOVII+ and KOVII+K, respectively ([1]; bOVII+ vs KOVII+, bOVII+b vs KOVII+K (FIG. 20)): about 10 fold | increase in sensitization activity compared to OVIIβ, OVIIPA ([1]; relative to peptides with Pro at second position from C terminal and/or β-Ala at C terminal (OVIIβ, OVIIPA, FIG. 11)): 100 fold

ISQAVHAAHAEINEAPA [OVIIPA]
protection of peptide from digestion ([4]; 10% fresh mouse serum, within 4 hr): protects about half of the peptide

CCN(CC)CCCC(C)Nc1ccnc2cc(Cl)ccc12 (centres unmarked) [chloroquine]
antigen presentation of OVA-loaded EL4 by F2-IA^d cells ([5]; 100 μM chloroquine (FIG. 4)): sensitive to chloroquine | presentation of OVA protein by F2-IA^d cells ([5]; 100 μM chloroquine (FIGS. 3, 4)): decreased

Ac-ISQAVHAAHAEINEA [ac-OVII]
digestion resistance to serum peptidases (in words) [6]: higher protection effect than the above-mentioned single modification of the C terminal side | sensitization activity / Th inducing activity (in words) ([1]; 10% FCS-DMEM, compared to OVII (FIG. 11)): almost no influence on the sensitization activity; also recorded: no difference from OVII

SK^bioISQAVHAAHAEINEARK^bio
cleaved bond [3]: A-R, major | fragment found [3]: product missing one biotin

CC[C@H](C)[C@H](N)C(=O)N[C@@H](CO)C(=O)N[C@@H](CCC(N)=O)C(=O)N[C@@H](C)C(=O)N[C@H](C(=O)N[C@@H](Cc1c[nH]cn1)C(=O)N[C@@H](C)C(=O)N[C@@H](C)C(=O)N[C@@H](Cc1c[nH]cn1)C(=O)N[C@@H](C)C(=O)N[C@@H](CCC(=O)O)C(=O)N[C@H](C(=O)N[C@@H](CC(N)=O)C(=O)N[C@@H](CCC(=O)O)C(=O)N[C@@H](C)C(=O)NCC(=O)NCCC(=O)O)[C@@H](C)CC)C(C)C [OVIIβ] (HELM PEPTIDE1{I.S.Q.A.V.H.A.A.H.A.E.I.N.E.A.G.[bAla]}$$$$V2.0; N-terminus and C-terminus assumed)
protection of peptide from digestion [6]: protects about half of the peptide

ISQAVHAAHAEINEAPA
cleaved bond [3]: Ile-S, major

LEDARRLKAIYEKKK [X peptide, third party antigen peptide]
tumor control, Th peptide together with OVA-I [2]: could delay tumor growth as compared to CTL single induction, but the mouse finally died

CC(C)C[C@H](NC(=O)[C@@H](O)[C@H](N)Cc1ccccc1)C(=O)O [bestatin]
inhibition of OVII peptide digestion / peptidase activity in serum [7]: about half of the peptidase activity was suppressed

SK^bioISQAVHAAHAEINEAR (H-SK(Biotin)ISQAVHAAHAEINEAR-OH; N-terminus and C-terminus assumed; SMILES CC[C@H](C)[C@H](NC(=O)[C@H](CCC(=O)O)NC(=O)[C@H](C)NC(=O)[C@H](Cc1c[nH]cn1)NC(=O)[C@H](C)NC(=O)[C@H](C)NC(=O)[C@H](Cc1c[nH]cn1)NC(=O)[C@@H](NC(=O)[C@H](C)NC(=O)[C@H](CCC(N)=O)NC(=O)[C@H](CO)NC(=O)[C@@H](NC(=O)[C@H](CCCCNC(=O)CCCC[C@@H]1SC[C@@H]2NC(=O)N[C@@H]21)NC(=O)[C@@H](N)CO)[C@@H](C)CC)C(C)C)C(=O)N[C@@H](CC(N)=O)C(=O)N[C@@H](CCC(=O)O)C(=O)N[C@@H](C)C(=O)N[C@@H](CCCNC(=N)N)C(=O)O)
cleaved bond [3]: A-Arg, major | fragment found [3]: product missing one biotin

HELM PEPTIDE1{I.S.Q.A.V.H.A.A.H.A.E.I.N.E.A.P.[bAla]}$$$$V2.0 (N-terminus and C-terminus assumed; SMILES CC[C@H](C)[C@H](N)C(=O)N[C@@H](CO)C(=O)N[C@@H](CCC(N)=O)C(=O)N[C@@H](C)C(=O)N[C@H](C(=O)N[C@@H](Cc1c[nH]cn1)C(=O)N[C@@H](C)C(=O)N[C@@H](C)C(=O)N[C@@H](Cc1c[nH]cn1)C(=O)N[C@@H](C)C(=O)N[C@@H](CCC(=O)O)C(=O)N[C@H](C(=O)N[C@@H](CC(N)=O)C(=O)N[C@@H](CCC(=O)O)C(=O)N[C@@H](C)C(=O)N1CCC[C@H]1C(=O)NCCC(=O)O)[C@@H](C)CC)C(C)C)
cleaved bond [3]: Ile-S, major

SKISQAVHAAHAEINEARK^bioG
cleaved bond [3]: Ser-K, major | fragment found [3]: product missing one biotin

CC[C@H](C)[C@H](NC(=O)[C@H](CCC(=O)O)NC(=O)[C@H](C)NC(=O)[C@H](Cc1c[nH]cn1)NC(=O)[C@H](C)NC(=O)[C@H](C)NC(=O)[C@H](Cc1c[nH]cn1)NC(=O)[C@@H](NC(=O)[C@H](C)NC(=O)[C@H](CCC(N)=O)NC(=O)[C@H](CO)NC(=O)[C@@H](NC(=O)[C@H](CCCCNC(=O)CCCC[C@@H]1SC[C@@H]2NC(=O)N[C@@H]21)NC(=O)[C@@H](N)CO)[C@@H](C)CC)C(C)C)C(=O)N[C@@H](CC(N)=O)C(=O)N[C@@H](CCC(=O)O)C(=O)N[C@@H](C)C(=O)N[C@@H](CCCNC(=N)N)C(=O)O [bOVII+] (H-SK(Biotin)ISQAVHAAHAEINEAR-OH; N-terminus and C-terminus assumed)
digestion resistance to serum peptidases (in words) [6]: no digestion resistance
